Here are results for 2 molecules from ChEMBL document CHEMBL1201862, “PubChem BioAssay data set” (2004).

As usually defined, the IC50 is the point on the concentration scale where inhibition reaches its midpoint. The EC50 is the concentration needed to bring the measured effect to its halfway point.

The source made the active and inactive calls. Where only a bound is given, the exact number is not on record here.

Assay [1] is described as follows: Counterscreen for IDE inhibitors: Luminescence-based cell-based high throughput dose response assay to identify compounds that are cytotoxic to HEK cells. [Related pubchem assays: 434962 (Primary screen (IDE inhibitors in singlicate)), 449730 (Counterscreen (Cytotoxicity in triplicate)), 435028 (Confirmation (IDE inhibitors in triplicate)) …. Type of assay: functional. The settings on record: HEK293. (In general: A counterscreen serves to expose hits that act by an unwanted route or on another target.)

In assay [2] the target is Vasopressin V1a receptor (Homo sapiens, UniProt P37288). Kind of assay: Fluorescence-based cell-based high throughput dose response screening assay for agonists of the vasopressin 1 receptor (V1R). In kind it is functional.
Vasopressin V1a receptor, sequence (P37288 whole entry): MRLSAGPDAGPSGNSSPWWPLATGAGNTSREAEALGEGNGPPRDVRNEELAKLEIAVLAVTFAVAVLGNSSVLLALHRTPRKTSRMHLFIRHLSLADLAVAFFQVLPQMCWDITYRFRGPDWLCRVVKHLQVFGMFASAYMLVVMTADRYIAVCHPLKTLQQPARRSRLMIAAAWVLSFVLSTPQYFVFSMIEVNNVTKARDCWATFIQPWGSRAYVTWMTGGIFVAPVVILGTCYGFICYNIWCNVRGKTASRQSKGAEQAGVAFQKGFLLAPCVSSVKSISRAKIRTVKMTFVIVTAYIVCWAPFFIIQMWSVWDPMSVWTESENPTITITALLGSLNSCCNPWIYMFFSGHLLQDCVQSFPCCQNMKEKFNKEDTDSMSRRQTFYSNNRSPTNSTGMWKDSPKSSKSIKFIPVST
Assay [3] addresses T1, Insulin-degrading enzyme (Homo sapiens, UniProt P14735).
T1 sequence (P14735 whole entry): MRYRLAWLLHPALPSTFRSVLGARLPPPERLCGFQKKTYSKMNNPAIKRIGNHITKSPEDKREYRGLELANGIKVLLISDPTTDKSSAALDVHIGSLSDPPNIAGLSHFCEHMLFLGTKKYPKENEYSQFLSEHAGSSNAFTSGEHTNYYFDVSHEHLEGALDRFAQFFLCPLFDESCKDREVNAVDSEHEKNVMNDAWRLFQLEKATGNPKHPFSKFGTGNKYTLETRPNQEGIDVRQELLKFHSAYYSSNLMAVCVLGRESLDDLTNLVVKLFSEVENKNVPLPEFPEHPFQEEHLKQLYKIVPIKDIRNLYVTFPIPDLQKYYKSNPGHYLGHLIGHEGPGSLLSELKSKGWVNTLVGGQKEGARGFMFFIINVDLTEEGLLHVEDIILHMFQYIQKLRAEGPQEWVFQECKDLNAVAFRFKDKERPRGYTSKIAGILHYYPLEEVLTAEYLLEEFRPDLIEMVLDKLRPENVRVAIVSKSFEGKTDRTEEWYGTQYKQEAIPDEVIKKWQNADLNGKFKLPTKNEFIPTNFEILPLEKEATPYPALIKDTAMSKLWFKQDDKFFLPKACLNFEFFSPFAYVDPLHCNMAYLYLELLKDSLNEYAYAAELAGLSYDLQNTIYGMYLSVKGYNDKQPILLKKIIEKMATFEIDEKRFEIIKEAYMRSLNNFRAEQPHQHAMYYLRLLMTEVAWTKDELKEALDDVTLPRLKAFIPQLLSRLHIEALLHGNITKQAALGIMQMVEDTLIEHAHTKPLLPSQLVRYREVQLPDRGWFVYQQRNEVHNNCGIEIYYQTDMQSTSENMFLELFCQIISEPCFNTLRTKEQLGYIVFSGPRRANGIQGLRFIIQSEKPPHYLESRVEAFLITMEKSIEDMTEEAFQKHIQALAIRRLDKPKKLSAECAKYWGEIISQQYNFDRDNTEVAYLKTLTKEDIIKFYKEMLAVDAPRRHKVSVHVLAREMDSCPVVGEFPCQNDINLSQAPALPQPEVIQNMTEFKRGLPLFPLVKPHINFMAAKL
Kind of assay: Dose Response: Fluorescence polarization-based cell-based high throughput dose response assay for inhibitors of insulin-degrading enzyme (IDE). [Related pubchem assays: 434962 (Primary screen (IDE inhibitors in singlicate)), 449730 (Counterscreen (Cytotoxicity in triplicate)), 435028 (Confirmation (IDE inhibitors in triplicate)), 434984 (Summary …. Type of assay: functional. (In fluorescence polarisation assays a small probe gives low polarisation when free and higher when bound to something large.)

For assay [4], the target named is Oxytocin receptor (Homo sapiens, UniProt P30559). Description: Counterscreen for vasopressin 1 receptor (V1R) agonists: Fluorescence-based cell-based high throughput dose response assay for agonists of the Oxytocin Receptor (OXTR). [Related pubchem assays: 2435 (Primary screen (OXTR agonists in singlicate)), 434964 (Confirmation screen (V1R agonists in triplicate)), 434969 (Counterscreen (OXTR agonists in …. Type of assay: functional.
Oxytocin receptor, sequence (P30559 whole entry): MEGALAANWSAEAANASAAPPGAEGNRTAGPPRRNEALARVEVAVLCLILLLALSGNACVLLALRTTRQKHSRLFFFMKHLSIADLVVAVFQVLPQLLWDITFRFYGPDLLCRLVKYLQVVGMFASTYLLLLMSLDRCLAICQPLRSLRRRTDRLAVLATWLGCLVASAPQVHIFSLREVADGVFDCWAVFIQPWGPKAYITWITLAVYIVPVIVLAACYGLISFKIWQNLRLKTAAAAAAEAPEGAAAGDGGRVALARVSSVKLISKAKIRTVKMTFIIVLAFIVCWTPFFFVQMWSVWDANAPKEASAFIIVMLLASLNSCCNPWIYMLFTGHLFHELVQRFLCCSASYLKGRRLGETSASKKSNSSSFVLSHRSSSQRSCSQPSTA

Assay [5] has as its system HT-1080. Description: HT1080 cell viability loss – fluorescence readout (AID 620). The settings on record: Homo sapiens. Type of assay: functional, cell-based.
Assay [6] deals with BJ. Kind of assay: BJ-TERT-LT-ST fibroblast viability loss – cell-based, RAS-independent, luminescence, dose response (AID 1935).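 Also: BJ fibroblasts immortalized with TERT plus LT and ST oncogenes.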 In kind it is functional. As to conditions: Homo sapiens.
The test system of assay [7] is HEK293. Kind of assay: NOD2 signaling inhibitors in MDP-stimulated cells, cell-based, uHTS, luminescence (AID 2001). Type of assay: functional. As to conditions: Homo sapiens.
Assay [8] deals with HEK293. Kind of assay: inhibition of NOD1-driven NF-kB reporter – cell-based, luminescence, uHTS, primary screen (AID 1578). As to conditions: Homo sapiens. Type of assay: functional.
Assay [9] deals with BJ. Description: BJ-TERT fibroblast viability loss – cell-based, RAS-independent, luminescence, dose response (AID 1933). Type of assay: functional. As to conditions: Homo sapiens.
Assay [10] concerns the target Luciferin 4-monooxygenase (Photinus pyralis, UniProt P08659). Description: Counter Screen for Luciferase-based Assay Positives. [Related pubchem assays: 620, 618, 411 ].
The nature of assay [11]: Luminescence-based dose response cell-based high throughput screening assay for cytotoxic compounds using the IEC-6 intestinal epithelial cell line. [Related pubchem assays: 1858 (Summary AID.), 1825 (Counterscreen.), 1907 (Confirmation screen.)]. In kind it is functional.
The nature of assay [12]: DRD fibroblast viability loss – cell-based, non-viral oncogenic, luminescence, dose response (AID 1934). The settings on record: Homo sapiens. In kind it is functional.
The subject of assay [13] is BJ. Description: cells. Type of assay: functional, cell-based. As to conditions: Homo sapiens.
For assay [14], the system named is HEK293. Kind of assay: cells. Type of assay: functional, cell-based. As to conditions: Homo sapiens.
The test system of assay [15] is HEK293. Kind of assay: cells. The settings on record: Homo sapiens. In kind it is functional, cell-based. This is another data set of the same source.
Assay [16] can be described thus: luciferase reporter signal suppression in cells – H4 neuroglioma cells, luminescence, dose response (AID 1990). In kind it is functional, cell-based. Background: A reporter such as luciferase makes a cellular process visible.

Luciferin 4-monooxygenase, sequence (P08659 whole entry): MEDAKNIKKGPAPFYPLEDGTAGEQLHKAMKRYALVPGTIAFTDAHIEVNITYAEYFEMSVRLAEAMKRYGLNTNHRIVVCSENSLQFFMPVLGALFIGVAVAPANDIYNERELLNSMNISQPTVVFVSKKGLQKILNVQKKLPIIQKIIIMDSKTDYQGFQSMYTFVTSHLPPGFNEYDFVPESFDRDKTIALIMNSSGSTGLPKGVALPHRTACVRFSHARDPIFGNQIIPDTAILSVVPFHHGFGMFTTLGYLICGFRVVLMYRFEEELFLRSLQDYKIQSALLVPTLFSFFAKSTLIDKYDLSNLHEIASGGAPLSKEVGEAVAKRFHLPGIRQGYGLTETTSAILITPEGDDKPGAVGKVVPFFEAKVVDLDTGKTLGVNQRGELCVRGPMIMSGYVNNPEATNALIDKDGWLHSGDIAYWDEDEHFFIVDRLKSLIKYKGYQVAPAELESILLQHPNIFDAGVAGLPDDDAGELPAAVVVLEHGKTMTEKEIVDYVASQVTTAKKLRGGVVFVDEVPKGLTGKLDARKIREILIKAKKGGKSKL

Regarding `CC(OC(=O)/C(C#N)=C/c1ccc(N(C)C)cc1)C(=O)N(C)Cc1ccccc1` (stereo unspecified), the concentration for half-maximal inhibition (IC50) in [1] is listed as 16.5 µM (not active); in assay [3] it was 12.8 µM (not active). Moreover, the EC50 is > 3.32 µM (active) in [2] and > 9.97 µM (active) in assay [4].

On to `COc1cccc(Cn2c(NCc3cccnc3)nc3c2c(=O)n(C)c(=O)n3C)c1`, for which the EC50 is > 50 µM (not active) in assay [5]; > 150 µM (inconclusive) in assay [6]; > 20 µM (inactive) in [8]; > 150 µM (not active) in assay [9]; 39.5 µM (active) in assay [10]; 5.5 µM (active) in [12]. The figures for the EC50 in [13] and in [16] were 4.58 µM (inconclusive) and 12 µM (active), respectively. Also, the IC50 was 14.6 µM (inactive) in assay [7], 425 nM (active) in assay [11], > 20 µM (inactive) in assay [14] and > 20 µM (inactive) in assay [15].
